ChEMBL document CHEMBL4219030, “Progress in the discovery of small molecule modulators of the Cys-loop superfamily receptors” (Bioorg Med Chem Lett, 2017)

How the values were obtained:
[1] = biological target: T1, Neuronal acetylcholine receptor; alpha4/beta2 (Homo sapiens, UniProt P17787+P43681); assay: Positive allosteric modulation of human alpha4beta2 nAChR expressed in HEK cells preincubated for 15 mins followed by dihydro-beta-erythroidine hydrobromide addition by fluorometric analysis; assay type: cell-based
[2] = biological target: Nicotinic acetylcholine receptor alpha2/beta2 (Homo sapiens, UniProt P02708+P17787); assay: Positive allosteric modulation of human alpha2beta2 nAChR expressed in HEK cells preincubated for 15 mins followed by dihydro-beta-erythroidine hydrobromide addition by fluorometric analysis; assay type: cell-based
[3] = biological target: T1, Neuronal acetylcholine receptor; alpha4/beta2; assay: Positive allosteric modulation of human (alpha4beta2)2beta2 nAChR expressed in HEK cells preincubated for 15 mins followed by dihydro-beta-erythroidine hydrobromide addition by fluorometric analysis; assay type: cell-based
[4] = biological target: Nicotinic acetylcholine receptor alpha2/beta4 (Homo sapiens, UniProt P02708+P30926); assay: Positive allosteric modulation of human alpha2beta4 nAChR expressed in HEK cells preincubated for 15 mins followed by dihydro-beta-erythroidine hydrobromide addition by fluorometric analysis; assay type: cell-based
[5] = biological target: Neuronal acetylcholine receptor; alpha4/beta4 (Homo sapiens, UniProt P30926+P43681); assay: Positive allosteric modulation of human alpha4beta4 nAChR expressed in HEK cells preincubated for 15 mins followed by dihydro-beta-erythroidine hydrobromide addition by fluorometric analysis; assay type: cell-based
[6] = Positive allosteric modulation of human (alpha4beta2)2alpha4 nAChR expressed in HEK cells preincubated for 15 mins followed by dihydro-beta-erythroidine hydrobromide addition by fluorometric analysis; assay type: cell-based; conditions: HEK293
[7] = biological target: Neuronal acetylcholine receptor subunit alpha-7 (Homo sapiens, UniProt P36544); assay: Inhibition of human alpha7 nAChR expressed in Xenopus oocytes at -80 mV holding potential by electro-physiological analysis; assay type: cell-based
[8] = biological target: T2, 5-hydroxytryptamine receptor 3A (Homo sapiens, UniProt P46098); assay: Antagonist activity at 5-HT3A receptor (unknown origin) assessed as inhibition of serotonin-induced peak currents
T2 sequence (P46098 whole entry): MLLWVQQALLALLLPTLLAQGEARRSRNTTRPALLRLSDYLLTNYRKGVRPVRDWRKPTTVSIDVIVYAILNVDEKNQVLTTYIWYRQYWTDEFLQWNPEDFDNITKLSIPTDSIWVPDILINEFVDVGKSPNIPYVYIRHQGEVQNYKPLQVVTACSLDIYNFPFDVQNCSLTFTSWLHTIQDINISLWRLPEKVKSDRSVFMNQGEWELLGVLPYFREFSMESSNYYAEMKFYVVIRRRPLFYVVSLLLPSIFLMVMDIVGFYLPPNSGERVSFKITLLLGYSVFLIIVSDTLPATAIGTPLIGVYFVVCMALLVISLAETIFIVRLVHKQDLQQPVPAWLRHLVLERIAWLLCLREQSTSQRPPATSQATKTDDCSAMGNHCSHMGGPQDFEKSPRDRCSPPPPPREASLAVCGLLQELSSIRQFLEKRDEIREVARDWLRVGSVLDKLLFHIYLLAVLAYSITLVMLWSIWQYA

[9] = biological target: Neuronal acetylcholine receptor; alpha3/beta2 (Homo sapiens) (UniProt P17787+P32297); assay: Positive allosteric modulation of human alpha3beta2 nAChR expressed Xenopus oocytes at 3 uM relative to acetylcholine; assay type: protein-complex assay
[10] = biological target: T3, Serotonin 3 (5-HT3) receptor (Homo sapiens, UniProt O95264+P46098); assay: Inhibition of human 5-HT3AB receptor expressed in […] cells after 30 mins by Fluo-4-AM dye based FLIPR assay; assay type: cell-based
T3 sequence (P46098 whole entry): T2 sequence (P46098 whole entry)
T3 sequence (O95264 whole entry): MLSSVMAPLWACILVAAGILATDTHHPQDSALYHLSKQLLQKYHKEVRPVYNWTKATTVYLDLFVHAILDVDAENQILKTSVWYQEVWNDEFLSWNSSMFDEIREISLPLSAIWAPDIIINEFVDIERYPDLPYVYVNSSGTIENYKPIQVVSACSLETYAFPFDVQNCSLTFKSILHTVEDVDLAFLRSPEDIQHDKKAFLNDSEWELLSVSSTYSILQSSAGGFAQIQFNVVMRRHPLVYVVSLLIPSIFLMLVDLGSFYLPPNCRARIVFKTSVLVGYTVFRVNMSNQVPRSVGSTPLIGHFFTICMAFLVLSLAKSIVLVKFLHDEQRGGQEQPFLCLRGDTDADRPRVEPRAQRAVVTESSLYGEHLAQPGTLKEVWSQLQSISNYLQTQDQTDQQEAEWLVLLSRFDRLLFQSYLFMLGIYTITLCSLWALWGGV

[11] = biological target: 5-hydroxytryptamine receptor 3A/3C (Homo sapiens, UniProt P46098+Q8WXA8); assay: Inhibition of human 5-HT3AC receptor expressed in […] cells after 30 mins by Fluo-4-AM dye based FLIPR assay; assay type: cell-based
[12] = biological target: 5-hydroxytryptamine receptor 3A/3E (Homo sapiens, UniProt A5X5Y0+P46098); assay: Inhibition of human 5-HT3AE receptor expressed in […] cells after 30 mins by Fluo-4-AM dye based FLIPR assay; assay type: cell-based
[13] = biological target: T2, 5-hydroxytryptamine receptor 3A; assay: Inhibition of human 5-HT3A receptor expressed in […] cells after 30 mins by Fluo-4-AM dye based FLIPR assay; assay type: cell-based
[14] = biological target: T3, Serotonin 3 (5-HT3) receptor; assay: Agonist activity at human […] receptor expressed in Xenopus laevis oocytes; assay type: cell-based
[15] = biological target: T2, 5-hydroxytryptamine receptor 3A; assay: Agonist activity at human […] receptor expressed in Xenopus laevis oocytes; assay type: cell-based
[16] = biological target: T4, 5-hydroxytryptamine receptor 3A (Cavia porcellus, UniProt O70212); assay: Antagonist activity 5-HT3A receptor in guinea pig ileum assessed as inhibition of 2-methyl-5-HT induced response preincubated for 10 mins followed by agonist addition; conditions: read-out: pA2 (converted)
T4 sequence (O70212 whole entry): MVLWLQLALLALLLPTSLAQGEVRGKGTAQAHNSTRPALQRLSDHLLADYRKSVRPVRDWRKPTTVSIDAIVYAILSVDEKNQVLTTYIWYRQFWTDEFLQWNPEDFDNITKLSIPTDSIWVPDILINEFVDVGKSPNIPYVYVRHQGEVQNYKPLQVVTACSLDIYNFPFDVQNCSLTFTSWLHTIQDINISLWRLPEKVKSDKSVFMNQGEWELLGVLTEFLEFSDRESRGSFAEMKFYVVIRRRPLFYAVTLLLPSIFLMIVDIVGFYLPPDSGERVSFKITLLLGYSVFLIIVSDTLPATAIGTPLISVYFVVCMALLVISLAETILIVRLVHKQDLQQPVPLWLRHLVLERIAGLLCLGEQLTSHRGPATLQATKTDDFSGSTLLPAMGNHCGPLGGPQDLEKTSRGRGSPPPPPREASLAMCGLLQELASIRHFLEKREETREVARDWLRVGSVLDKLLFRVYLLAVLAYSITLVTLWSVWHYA

[17] = biological target: T2, 5-hydroxytryptamine receptor 3A; assay: Inhibition of recombinant human 5-HT3A receptor expressed in HEK293 cell membranes […] in presence of [3H]GR65630
[18] = biological target: Neuronal acetylcholine receptor subunit alpha-7 (Rattus norvegicus, UniProt Q05941); assay: Agonist activity at rat brain membrane alpha7 nAChR
Neuronal acetylcholine receptor subunit alpha-7 (Rattus norvegicus, UniProt Q05941), sequence (Q05941 whole entry): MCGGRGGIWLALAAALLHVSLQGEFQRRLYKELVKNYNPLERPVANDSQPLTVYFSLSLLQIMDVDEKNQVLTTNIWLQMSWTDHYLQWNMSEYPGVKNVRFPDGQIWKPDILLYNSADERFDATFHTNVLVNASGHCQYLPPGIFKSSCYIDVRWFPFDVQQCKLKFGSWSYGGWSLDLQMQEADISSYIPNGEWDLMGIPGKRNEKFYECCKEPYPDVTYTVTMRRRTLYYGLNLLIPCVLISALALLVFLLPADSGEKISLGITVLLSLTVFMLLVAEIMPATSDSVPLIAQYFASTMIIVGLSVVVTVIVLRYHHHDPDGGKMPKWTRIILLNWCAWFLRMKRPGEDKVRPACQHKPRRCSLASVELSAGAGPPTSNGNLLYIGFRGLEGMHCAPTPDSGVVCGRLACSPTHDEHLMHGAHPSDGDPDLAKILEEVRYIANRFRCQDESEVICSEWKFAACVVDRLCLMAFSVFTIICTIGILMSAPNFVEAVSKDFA

T1 sequence (P17787 whole entry): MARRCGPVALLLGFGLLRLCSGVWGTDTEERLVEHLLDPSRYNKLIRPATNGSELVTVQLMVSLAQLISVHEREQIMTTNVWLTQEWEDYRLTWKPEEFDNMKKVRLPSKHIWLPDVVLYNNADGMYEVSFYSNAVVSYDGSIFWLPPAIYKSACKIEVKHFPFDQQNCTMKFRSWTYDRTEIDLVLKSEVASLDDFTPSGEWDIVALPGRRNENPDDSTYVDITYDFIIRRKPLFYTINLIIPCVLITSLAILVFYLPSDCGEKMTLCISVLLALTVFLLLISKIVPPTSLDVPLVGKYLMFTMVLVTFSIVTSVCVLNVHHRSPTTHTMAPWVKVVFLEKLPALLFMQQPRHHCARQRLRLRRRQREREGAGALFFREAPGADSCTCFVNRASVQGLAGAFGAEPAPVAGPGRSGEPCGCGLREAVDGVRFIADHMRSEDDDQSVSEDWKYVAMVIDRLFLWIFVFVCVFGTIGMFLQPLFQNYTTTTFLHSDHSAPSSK
T1 sequence (P43681 whole entry): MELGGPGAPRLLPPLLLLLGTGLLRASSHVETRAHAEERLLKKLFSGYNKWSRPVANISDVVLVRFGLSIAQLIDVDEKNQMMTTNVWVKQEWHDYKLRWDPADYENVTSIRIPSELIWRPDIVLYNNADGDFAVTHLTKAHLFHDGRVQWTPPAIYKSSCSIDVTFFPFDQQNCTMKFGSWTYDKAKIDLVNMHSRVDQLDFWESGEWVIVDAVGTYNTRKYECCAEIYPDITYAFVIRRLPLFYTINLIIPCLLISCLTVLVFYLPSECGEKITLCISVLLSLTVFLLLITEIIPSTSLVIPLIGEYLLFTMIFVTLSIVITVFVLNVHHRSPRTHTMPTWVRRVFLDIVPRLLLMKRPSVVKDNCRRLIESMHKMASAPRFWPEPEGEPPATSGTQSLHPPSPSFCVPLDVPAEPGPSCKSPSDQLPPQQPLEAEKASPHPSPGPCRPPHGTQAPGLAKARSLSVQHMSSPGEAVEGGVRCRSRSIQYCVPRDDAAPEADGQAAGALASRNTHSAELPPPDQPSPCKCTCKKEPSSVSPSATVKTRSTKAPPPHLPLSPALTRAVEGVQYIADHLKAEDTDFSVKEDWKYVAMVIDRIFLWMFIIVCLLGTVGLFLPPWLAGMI
Nicotinic acetylcholine receptor alpha2/beta2, sequence (P02708 whole entry): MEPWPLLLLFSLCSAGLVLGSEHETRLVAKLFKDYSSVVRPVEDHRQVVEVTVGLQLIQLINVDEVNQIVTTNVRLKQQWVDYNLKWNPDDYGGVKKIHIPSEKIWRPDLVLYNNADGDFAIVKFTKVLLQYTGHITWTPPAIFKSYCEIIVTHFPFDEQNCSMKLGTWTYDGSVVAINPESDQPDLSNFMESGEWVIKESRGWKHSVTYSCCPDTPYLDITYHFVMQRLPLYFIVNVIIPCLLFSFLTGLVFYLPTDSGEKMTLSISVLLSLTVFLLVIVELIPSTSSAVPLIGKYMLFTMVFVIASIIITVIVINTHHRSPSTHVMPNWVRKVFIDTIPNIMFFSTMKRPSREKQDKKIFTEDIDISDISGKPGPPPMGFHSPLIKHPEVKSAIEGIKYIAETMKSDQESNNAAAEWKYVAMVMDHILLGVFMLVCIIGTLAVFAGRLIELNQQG
Nicotinic acetylcholine receptor alpha2/beta2, sequence (P17787 whole entry): as the sequence (P17787 whole entry) above
Nicotinic acetylcholine receptor alpha2/beta4, sequence (P02708 whole entry): as the sequence (P02708 whole entry) above
Nicotinic acetylcholine receptor alpha2/beta4, sequence (P30926 whole entry): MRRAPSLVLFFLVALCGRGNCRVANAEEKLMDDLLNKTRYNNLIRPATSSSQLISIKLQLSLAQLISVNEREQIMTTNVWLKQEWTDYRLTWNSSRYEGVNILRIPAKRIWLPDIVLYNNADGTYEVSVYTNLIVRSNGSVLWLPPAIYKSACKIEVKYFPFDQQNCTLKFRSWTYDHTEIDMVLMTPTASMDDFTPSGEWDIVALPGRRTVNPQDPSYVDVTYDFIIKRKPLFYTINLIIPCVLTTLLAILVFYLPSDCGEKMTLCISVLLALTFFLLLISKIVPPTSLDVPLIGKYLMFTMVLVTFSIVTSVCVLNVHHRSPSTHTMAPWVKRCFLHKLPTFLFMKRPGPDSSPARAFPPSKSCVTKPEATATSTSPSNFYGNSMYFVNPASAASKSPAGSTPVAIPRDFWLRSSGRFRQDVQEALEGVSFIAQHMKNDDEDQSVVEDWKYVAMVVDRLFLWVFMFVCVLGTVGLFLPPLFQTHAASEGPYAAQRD
Neuronal acetylcholine receptor; alpha4/beta4, sequence (P30926 whole entry): as above
Neuronal acetylcholine receptor; alpha4/beta4, sequence (P43681 whole entry): as the sequence (P43681 whole entry) above
5-hydroxytryptamine receptor 3A/3E, sequence (A5X5Y0 whole entry, one chain of several): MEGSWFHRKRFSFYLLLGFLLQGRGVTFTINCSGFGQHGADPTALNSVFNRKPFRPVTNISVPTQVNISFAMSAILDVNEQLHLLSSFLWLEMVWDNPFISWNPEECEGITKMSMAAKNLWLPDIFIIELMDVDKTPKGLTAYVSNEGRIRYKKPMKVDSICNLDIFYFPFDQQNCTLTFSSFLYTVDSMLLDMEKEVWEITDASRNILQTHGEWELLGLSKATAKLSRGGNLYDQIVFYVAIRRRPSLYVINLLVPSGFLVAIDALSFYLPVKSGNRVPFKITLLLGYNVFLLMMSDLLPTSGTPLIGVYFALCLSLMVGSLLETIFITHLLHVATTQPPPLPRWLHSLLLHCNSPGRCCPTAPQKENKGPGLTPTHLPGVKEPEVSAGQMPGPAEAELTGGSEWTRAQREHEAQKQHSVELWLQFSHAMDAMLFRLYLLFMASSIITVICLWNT
5-hydroxytryptamine receptor 3A/3C, sequence (Q8WXA8 whole entry, one chain of several): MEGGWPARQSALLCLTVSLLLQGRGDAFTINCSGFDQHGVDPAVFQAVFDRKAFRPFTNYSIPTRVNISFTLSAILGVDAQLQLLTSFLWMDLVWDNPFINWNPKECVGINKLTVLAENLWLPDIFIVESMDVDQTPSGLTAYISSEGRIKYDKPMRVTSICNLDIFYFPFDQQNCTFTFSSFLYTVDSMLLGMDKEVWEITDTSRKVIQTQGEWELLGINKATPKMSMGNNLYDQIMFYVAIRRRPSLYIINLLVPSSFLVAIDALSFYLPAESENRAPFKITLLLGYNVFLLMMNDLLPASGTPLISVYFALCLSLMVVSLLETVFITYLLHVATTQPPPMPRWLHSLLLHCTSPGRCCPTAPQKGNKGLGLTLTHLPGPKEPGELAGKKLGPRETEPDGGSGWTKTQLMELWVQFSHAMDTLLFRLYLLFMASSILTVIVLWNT
Neuronal acetylcholine receptor subunit alpha-7 (Homo sapiens, UniProt P36544), sequence (P36544 whole entry): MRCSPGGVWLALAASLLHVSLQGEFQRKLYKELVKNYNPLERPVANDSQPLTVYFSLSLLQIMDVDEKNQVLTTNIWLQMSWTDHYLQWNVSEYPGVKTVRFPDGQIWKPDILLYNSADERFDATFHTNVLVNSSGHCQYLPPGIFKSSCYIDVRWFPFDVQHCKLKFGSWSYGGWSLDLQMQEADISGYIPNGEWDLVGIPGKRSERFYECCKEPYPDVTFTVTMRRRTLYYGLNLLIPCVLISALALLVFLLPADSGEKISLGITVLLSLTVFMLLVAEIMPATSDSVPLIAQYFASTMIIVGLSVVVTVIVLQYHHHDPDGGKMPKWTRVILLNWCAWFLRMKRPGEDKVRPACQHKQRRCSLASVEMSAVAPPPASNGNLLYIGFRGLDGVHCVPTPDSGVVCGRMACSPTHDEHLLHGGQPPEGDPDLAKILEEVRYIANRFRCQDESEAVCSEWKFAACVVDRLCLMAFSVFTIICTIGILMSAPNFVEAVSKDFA

O=C(N[C@@H]1CCCNC1)c1cc2cccc(Br)c2s1
EC50 [1]: 446 nM
EC50 [2]: 660 nM
EC50 [3]: 275 nM
EC50 [4]: 286 nM
EC50 [5]: 237 nM
EC50 [6]: 165 nM

C#CCNc1nc(NCCCCC2CCN(Cc3ccccc3)CC2)c(C#N)cc1C#N
IC50 [7]: 320 nM
IC50 [8]: 1400 nM

Clc1ccccc1CN[C@@H]1CN2CCC1CC2
fold change (FC) [9]: 3

c1ccc2c(CSc3[nH]cnc4ncnc3-4)cccc2c1
IC50 [10]: 430 nM
IC50 [11]: 840 nM
IC50 [12]: 710 nM
IC50 [13]: 620 nM

N=C(N)NC(=N)Nc1cccc(Cl)c1
EC50 [14]: 2800 nM
EC50 [15]: 3800 nM

COc1nc2ccccc2nc1C(=O)Nc1nc2ccccc2s1
Kb [16]: 39.8 nM

O=C(c1cnc2ccccc2n1)N1CCN(Cc2ccccc2)CC1
Kb [16]: 15.8 nM

O=C(N[C@H]1CN2CCC1CC2)c1ccc2ncccc2c1
IC50 [17]: 150 nM
IC50 [18]: 10000 nM
